Assays:
[1] = test system: voltage-dependent sodium channels in the prefrontal cortex pyramidal neurons; assay: In vitro electrophysiological study of sodium currents; type: cell-based, Rats
Protocol: The experiments were carried out in accordance with institutional and international guidelines regarding the ethics of animal research. Rats (3 weeks old) were anesthetized with ethyl chloride and decapitated. The brains were then removed and placed in ice-cold extracellular fluid. The methodology of slice preparation and pre-incubation has been described earlier (Szulczyk, B.; Nurowska, E. Biochem. Biophys. Res. Commun. 2017, 491, 291-295). The sections containing the prefrontal cortex were enzymatically and mechanically dispersed. Single prefrontal cortex pyramidal neurons were visualized using an inverted microscope (Nikon). Sodium currents were induced by rectangular depolarizing stimuli. The potential between depolarizing stimuli was maintained at −65 mV. […]
The extracellular fluid washing the neurons contained (in mM): NaCl (30), choline chloride (90), TEA-Cl (30), CaCl2 (2), MgCl2 (2), glucose (15), HEPES (10), LaCl3 (0.001) and CdCl2 (0.4) (pH 7.4). Currents were recorded using an Axopatch 1D amplifier and analyzed using pClamp software (Axon Instruments and Molecular Devices, USA). […]
The patch membrane was ruptured by suction or by an electrical stimulus, and then membrane capacitance was compensated. […] The leakage current was subtracted from the recorded currents. […]

[2] = target: TRPV1 receptor (VR1) (h) (Homo sapiens, UniProt Q8NER1); assay: TRPV1 receptor functional study (antagonist effect); type: cell-based; details: human recombinant cells (CHO), read-out: % Inhibition of agonist control responses, TRPV1 receptor (antagonist effect)
Sequence of TRPV1 receptor (VR1) (h) (Q8NER1 whole entry): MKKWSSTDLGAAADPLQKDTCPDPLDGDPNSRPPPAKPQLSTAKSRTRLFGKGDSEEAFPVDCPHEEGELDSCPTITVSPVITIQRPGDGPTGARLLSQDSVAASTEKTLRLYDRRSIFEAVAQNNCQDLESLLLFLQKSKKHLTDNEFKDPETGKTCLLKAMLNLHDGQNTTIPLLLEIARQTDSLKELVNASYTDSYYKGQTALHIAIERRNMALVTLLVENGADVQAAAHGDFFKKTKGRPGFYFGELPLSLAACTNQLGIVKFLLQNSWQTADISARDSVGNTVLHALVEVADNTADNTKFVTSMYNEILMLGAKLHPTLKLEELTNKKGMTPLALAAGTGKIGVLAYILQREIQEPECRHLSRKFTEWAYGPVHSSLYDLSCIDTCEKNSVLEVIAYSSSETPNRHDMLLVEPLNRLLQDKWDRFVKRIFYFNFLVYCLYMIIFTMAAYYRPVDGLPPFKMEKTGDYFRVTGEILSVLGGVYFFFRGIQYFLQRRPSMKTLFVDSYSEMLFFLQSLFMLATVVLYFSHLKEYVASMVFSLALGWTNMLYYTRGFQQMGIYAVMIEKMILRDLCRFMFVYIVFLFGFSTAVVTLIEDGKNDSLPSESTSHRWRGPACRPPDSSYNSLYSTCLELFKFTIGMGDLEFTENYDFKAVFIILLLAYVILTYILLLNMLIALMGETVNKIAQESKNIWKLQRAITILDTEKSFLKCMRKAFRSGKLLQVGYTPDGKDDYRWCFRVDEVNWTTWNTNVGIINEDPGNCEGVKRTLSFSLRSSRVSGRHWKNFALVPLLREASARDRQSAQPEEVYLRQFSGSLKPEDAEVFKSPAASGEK
From the text: (§1) A unique feature of the compound 6 representing compounds of formula (II) according to the invention is the inhibition of calcium currents by blocking the transient receptor potential vanilloid type 1 (TRPV1). This effect has not been disclosed for known AEDs. TRPV1 receptor antagonism may determine the antinociceptive effect of the compounds disclosed herein. The role of the TRPV1 receptor in conduction of pain stimuli has been well documented in specialist literature (Szallasi, A.; Cortright, D. N.; Blum, C. A.; Eid, S. R. Nat. Rev. Drug. Discov. 2007, 6, 357-372). The compounds according to the invention are characterized by a complex mechanism of action, which is not described for known anticonvulsants. It should be emphasized, however, that further in vitro studies may reveal further molecular targets responsible for the pharmacological action of substances being the subject of current patent claim. The results of binding studies (sodium channel, calcium channel) and functional tests (TRPV1 receptor) for compound 6 are shown in Table 3.

[3] = Metabolic stability in human liver microsomes; type: in vitro ADME
Protocol: Metabolic stability. The metabolic stability of compound 6 was evaluated using human liver microsomes (HLMs). Internal clearance values CLint were calculated by monitoring changes in compound concentration in the presence of microsomes per unit of time, according to the procedure proposed by Obach R. S. (Obach, R. S. Drug Metab. Dispos. 1999, 27, 1350-1359).
Metabolic stability tests—methodology. Metabolic stability studies for compound 6 were performed using HLMs (Promega, Madison, WI, USA). For this purpose, 10 μL of compound 6 at a concentration of 1000 μM was diluted with 132 μL with tris-HCl buffer (100 mM, pH 7.4), followed by the addition of 8 μL of appropriate microsomes. The reaction mixture was preincubated at 37° C. for 5 minutes, followed by the addition of 50 μL of NADPH Regeneration System, supplied by Promega (Madison, WI, USA). After mixing, the whole mixture was incubated at 37° C. for 120 minutes. To complete the reaction, 200 μL of cold methanol was added to the tubes and centrifuged. The supernatant was subjected to UPLC/MS analysis, including fragmentation analysis. Four mixtures of 6 with HLMs were prepared to determine the internal clearance CLint. Each of these reactions was completed at a different time point, after 5, 15, 30 and 45 min, by the addition of cold methanol containing 50 μM internal standard. Then, according to literature guidelines (Obach, R. S. Drug Metab. Dispos. 1999, 27, 1350-1359), based on the plot of the relationship between the height of the peak from 6 and the height of the internal standard, the regression equation was determined and the reaction rate constant k was calculated. Then the constant k was substituted to equation (1).
The calculated t1/2 value was then substituted into equation (2): […]

[4] = test system: Ca2+ channel type L (dihydropyridine binding site); assay: Ca2+ channel type L (dihydropyridine binding site) affinity study; details: rat cerebral cortex
From the text: as §1

[5] = test system: Ca2+ channel type L (verapamil binding site); assay: Ca2+ channel type L (verapamil binding site) affinity study; details: 100 μM, rat cerebral cortex
From the text: as §1

[6] = test system: Ca2+ channel type L (diltiazem binding site); assay: Ca2+ channel type L (diltiazem binding site) affinity study; details: 100 μM, rat cerebral cortex
From the text: as §1

## O=C(C(c1ccccc1)N1C(=O)CCC1=O)N1CCN(c2cccc(C(F)(F)F)c2)CC1 (racemic) [Compound 6, 1-(2-Oxo-1-phenyl-2-(4-(3-(trifluoromethyl)phenyl)piperazin-1-yl)ethyl)pyrrolidine-2,5-dione]
[1]; 100 μM, in the presence of the compound, holding -65 mV
  maximum amplitude of sodium currents normalized to control (1.0): 0.59±0.08
[1]; after wash-out of 100 μM, n=5
  sodium current amplitude normalized to control after washing out: 0.79±0.07
[2]
  inhibition at 100 µM: 71.7%
[3]; 120 min incubation, UPLC/MS
  metabolites found by UPLC after incubation with HLMs: three metabolites M1-M3
[3]; human, human liver microsomes, pH 7.4, incubation with HLMs, read-out: internal clearance CLint
  CLint scaled at 50 µM: 5.8 mL/min/kg
[3]; incubation with HLMs
  internal clearance CLint: 5.6 mL/min/kg
[4]; 10 μM
  Inhibition of specific control binding, Ca2+ channel type L (dihydropyridine binding site): 30.8 (10) %
[4]; 100 μM
  Inhibition of specific control binding, Ca2+ channel type L (dihydropyridine binding site): 82.3 (100) %
[5]
  Inhibition of specific control binding, Ca2+ channel type L (verapamil binding site): 58.2 (100) %
[6]
  Inhibition of specific control binding, Ca2+ channel type L (diltiazem binding site): 69.6 (100) %

Source: patent publication US12139458B2, “(2,5-dioxopyrrolidin-1-yl)(phenyl)-acetamide derivatives and their use in the treatment of neurological diseases” (UNIWERSYTET JAGIELLONSKI, priority 2019, dated 2024)
